Consider 4 molecules from patent publication US8324272B2 (XenoPort, Inc., priority 2006, dated 2012).

Structures are written as SMILES. Values joined by “and” are separate entries in the source; they are usually repeats but may differ in a detail not shown here. Identical values can stand only once.

The nature of data set [1]: Hygroscopicity of crystalline hydrochloride (9) crystallized from various solvents. It is filed as physicochemical. How it is done:
Crystallization of (1R,2R)-1-methyl-2-(2-methylpropanoyloxy)propyl (2S)-2-amino-3-(3,4-dihydroxyphenyl)propanoate hydrochloride (9) was crystallized using the solvents listed in Table 1 on an 80 mg scale.

The conditions of data set [2]: oral administration; cited from earlier work.

Take `CC(C)C(=O)O[C@H](C)[C@@H](C)OC(=O)[C@@H](N)Cc1ccc(O)c(O)c1.CS(=O)(=O)O`: the melting point is 181.2 to 186 °C.

Regarding `CC(C)C(=O)O[C@H](C)[C@@H](C)OC(=O)[C@@H](N)Cc1ccc(O)c(O)c1.Cl` [Compound 9, (1R,2R)-1-Methyl-2-(2-methylpropanoyloxy)propyl (2S)-2-Amino-3-(3,4-dihydroxyphenyl)propanoate Hydrochloride], the melting point is 164.7 to 166.2 °C and 164.9 to 166.4 °C. Also, the Hygroscopicity result in data set [1] (crystallized from acetonitrile) is “None”. The Hygroscopicity result in data set [1] (crystallized from isopropanol-ethyl acetate) is “None”. Moreover, the Hygroscopicity entry in data set [1] (crystallized from isopropanol-methyl tert-butyl ether) was “None”. Moreover, the Hygroscopicity result in data set [1] (crystallized from tetrahydrofuran-diisopropyl ether) is on record as “None”. The Hygroscopicity entry in data set [1] (crystallized from tetrahydrofuran-hexane) is reported as “None”. The Hygroscopicity entry in data set [1] (crystallized from tetrahydrofuran-methyl tert-butyl ether) was “None”. Also, the Hygroscopicity entry in data set [1] (crystallized from water-acetonitrile) was “None”. The Hygroscopicity result in data set [1] (crystallized from water-methyl tert-butyl ether) was “None”.

Regarding `CS(=O)(=O)O.C[C@@H](OC(=O)c1ccccc1)[C@@H](C)OC(=O)[C@@H](N)Cc1ccc(O)c(O)c1` [Compound 11, (1R,2R)-1-Methyl-2-phenylcarbonyloxypropyl (2S)-2-Amino-3-(3,4-dihydroxyphenyl)propanoate Mesylate], the melting point was 94.4 °C (dec.).

`CC(C)(C)C(=O)Oc1ccc(C[C@H](N)C(=O)O)cc1O` [NB-355]: in data set [2], the “duration of circulating levodopa” value is “prolonged” and the “plasma concentrations of levodopa” value is listed as “low”.

As usually defined, the melting point is the temperature of the solid-liquid transition.
